# Experimental data as given in PubChem BioAssay (NCI).
#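 The compound was tested at five concentrations on cells cultured in 96-well plates, with a 48-hour exposure period. Abbreviation: GI50, concentration required for 50% inhibition of growth. Definition used: TGI = concentration required for complete inhibition of growth.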
# Assays:
# Assay in all cases: inhibition of tumour cell growth, NCI panel, 48 h
# 786-0 renal = tested on: 786-0 renal
# A549 NSCLC = tested on: A549 NSCLC
# ACHN renal = tested on: ACHN renal
# BT-549 breast = tested on: BT-549 breast
# CAKI-1 renal = tested on: CAKI-1 renal
# CCRF-CEM leukemia = tested on: CCRF-CEM leukemia
# COLO 205 colon = tested on: COLO 205 colon
# DU-145 prostate = tested on: DU-145 prostate
# EKVX NSCLC = tested on: EKVX NSCLC
# HCT-116 colon = tested on: HCT-116 colon
# HCT-15 colon = tested on: HCT-15 colon
# HOP-62 NSCLC = tested on: HOP-62 NSCLC
# HS 578T breast = tested on: HS 578T breast
# HT29 colon = tested on: HT29 colon
# IGROV1 ovarian = tested on: IGROV1 ovarian
# K-562 leukemia = tested on: K-562 leukemia
# KM12 colon = tested on: KM12 colon
# LOX IMVI melanoma = tested on: LOX IMVI melanoma
# M14 melanoma = tested on: M14 melanoma
# MCF7 breast = tested on: MCF7 breast
# MDA-MB-231 breast = tested on: MDA-MB-231 breast
# MDA-MB-435 = tested on: MDA-MB-435
# MOLT-4 leukemia = tested on: MOLT-4 leukemia
# NCI-H226 lung = tested on: NCI-H226 lung
# NCI-H23 lung = tested on: NCI-H23 lung
# NCI-H460 lung = tested on: NCI-H460 lung
# NCI-H522 lung = tested on: NCI-H522 lung
# NCI/ADR-RES ovarian = tested on: NCI/ADR-RES ovarian
# OVCAR-3 ovarian = tested on: OVCAR-3 ovarian
# OVCAR-4 ovarian = tested on: OVCAR-4 ovarian
# OVCAR-5 ovarian = tested on: OVCAR-5 ovarian
# OVCAR-8 ovarian = tested on: OVCAR-8 ovarian
# PC-3 prostate = tested on: PC-3 prostate
# RPMI-8226 leukemia = tested on: RPMI-8226 leukemia
# RXF 393 renal = tested on: RXF 393 renal
# SF-268 CNS = tested on: SF-268 CNS
# SF-295 CNS = tested on: SF-295 CNS
# SK-MEL-2 melanoma = tested on: SK-MEL-2 melanoma
# SK-MEL-28 melanoma = tested on: SK-MEL-28 melanoma
# SK-MEL-5 melanoma = tested on: SK-MEL-5 melanoma
# SK-OV-3 ovarian = tested on: SK-OV-3 ovarian
# SN12C renal = tested on: SN12C renal
# SNB-19 CNS = tested on: SNB-19 CNS
# SNB-75 CNS = tested on: SNB-75 CNS
# SW-620 colon = tested on: SW-620 colon
# T-47D breast = tested on: T-47D breast
# TK-10 renal = tested on: TK-10 renal
# U251 CNS = tested on: U251 CNS
# UACC-257 melanoma = tested on: UACC-257 melanoma
# UACC-62 melanoma = tested on: UACC-62 melanoma
# UO-31 renal = tested on: UO-31 renal
smiles,measurement,setting,value
COc1cc([C@@H]2C[C@H]2c2cc(SC)n[nH]2)cc(OC)c1OC,GI50,786-0 renal,18 µM
same,TGI,786-0 renal,44.6 µM
same,GI50,A549 NSCLC,25.9 µM
same,TGI,A549 NSCLC,> 100 µM
same,GI50,ACHN renal,30.3 µM
same,TGI,ACHN renal,> 100 µM
same,GI50,BT-549 breast,16.2 µM
same,TGI,BT-549 breast,42 µM
same,GI50,CAKI-1 renal,15.6 µM
same,TGI,CAKI-1 renal,37.9 µM
same,GI50,CCRF-CEM leukemia,19.4 µM
same,TGI,CCRF-CEM leukemia,> 100 µM
same,GI50,COLO 205 colon,20.5 µM
same,TGI,COLO 205 colon,70 µM
same,GI50,DU-145 prostate,17.7 µM
same,TGI,DU-145 prostate,> 100 µM
same,GI50,EKVX NSCLC,14.9 µM
same,TGI,EKVX NSCLC,40.2 µM
same,GI50,HCT-116 colon,23.6 µM
same,TGI,HCT-116 colon,85.7 µM
same,GI50,HCT-15 colon,22.8 µM
same,TGI,HCT-15 colon,80.2 µM
same,GI50,HOP-62 NSCLC,5.75 µM
same,TGI,HOP-62 NSCLC,28.8 µM
same,GI50,HS 578T breast,15.1 µM
same,TGI,HS 578T breast,45.2 µM
same,GI50,HT29 colon,26.9 µM
same,TGI,HT29 colon,> 100 µM
same,GI50,IGROV1 ovarian,18.3 µM
same,TGI,IGROV1 ovarian,> 100 µM
same,GI50,K-562 leukemia,21 µM
same,TGI,K-562 leukemia,> 100 µM
same,GI50,KM12 colon,15.2 µM
same,TGI,KM12 colon,32.8 µM
same,GI50,LOX IMVI melanoma,93.9 µM
same,TGI,LOX IMVI melanoma,> 100 µM
same,GI50,M14 melanoma,13.9 µM
same,TGI,M14 melanoma,28.5 µM
same,GI50,MCF7 breast,18.8 µM
same,TGI,MCF7 breast,41.2 µM
same,GI50,MDA-MB-231 breast,12.1 µM
same,TGI,MDA-MB-231 breast,33.2 µM
same,GI50,MDA-MB-435,11.2 µM
same,TGI,MDA-MB-435,26.5 µM
same,GI50,MOLT-4 leukemia,20.3 µM
same,TGI,MOLT-4 leukemia,> 100 µM
same,GI50,NCI-H226 lung,16.9 µM
same,TGI,NCI-H226 lung,70.4 µM
same,GI50,NCI-H23 lung,21.1 µM
same,TGI,NCI-H23 lung,58 µM
same,GI50,NCI-H460 lung,17.7 µM
same,TGI,NCI-H460 lung,41.7 µM
same,GI50,NCI-H522 lung,13.8 µM
same,TGI,NCI-H522 lung,37.3 µM
same,GI50,NCI/ADR-RES ovarian,17.6 µM
same,TGI,NCI/ADR-RES ovarian,49.3 µM
same,GI50,OVCAR-3 ovarian,13.2 µM
same,TGI,OVCAR-3 ovarian,30.5 µM
same,GI50,OVCAR-4 ovarian,26.2 µM
same,TGI,OVCAR-4 ovarian,> 100 µM
same,GI50,OVCAR-5 ovarian,37.9 µM
same,TGI,OVCAR-5 ovarian,90.1 µM
same,GI50,OVCAR-8 ovarian,14 µM
same,TGI,OVCAR-8 ovarian,45.1 µM
same,GI50,PC-3 prostate,18.1 µM
same,TGI,PC-3 prostate,57.2 µM
same,GI50,RPMI-8226 leukemia,12.6 µM
same,TGI,RPMI-8226 leukemia,37.2 µM
same,GI50,RXF 393 renal,0.0483 µM
same,TGI,RXF 393 renal,5.7 µM
same,GI50,SF-268 CNS,15.1 µM
same,TGI,SF-268 CNS,50 µM
same,GI50,SF-295 CNS,10.9 µM
same,TGI,SF-295 CNS,28.5 µM
same,GI50,SK-MEL-2 melanoma,25.6 µM
same,TGI,SK-MEL-2 melanoma,67.2 µM
same,GI50,SK-MEL-28 melanoma,23.5 µM
same,TGI,SK-MEL-28 melanoma,> 100 µM
same,GI50,SK-MEL-5 melanoma,14.7 µM
same,TGI,SK-MEL-5 melanoma,29 µM
same,GI50,SK-OV-3 ovarian,17.4 µM
same,TGI,SK-OV-3 ovarian,65.2 µM
same,GI50,SN12C renal,8.98 µM
same,TGI,SN12C renal,31.8 µM
same,GI50,SNB-19 CNS,35 µM
same,TGI,SNB-19 CNS,> 100 µM
same,GI50,SNB-75 CNS,26.4 µM
same,TGI,SNB-75 CNS,> 100 µM
same,GI50,SW-620 colon,26.9 µM
same,TGI,SW-620 colon,> 100 µM
same,GI50,T-47D breast,16.5 µM
same,TGI,T-47D breast,> 100 µM
same,GI50,TK-10 renal,22.5 µM
same,TGI,TK-10 renal,52.5 µM
same,GI50,U251 CNS,79.3 µM
same,TGI,U251 CNS,> 100 µM
same,GI50,UACC-257 melanoma,17.7 µM
same,TGI,UACC-257 melanoma,50.7 µM
same,GI50,UACC-62 melanoma,14 µM
same,TGI,UACC-62 melanoma,43.6 µM
same,GI50,UO-31 renal,23 µM
same,TGI,UO-31 renal,> 100 µM
